Results: ChEMBL document CHEMBL1125546, “Novel 5-HT3 antagonists. Isoquinolinones and 3-aryl-2-pyridones” (J Med Chem, 1992)

Assays:
Rattus norvegicus = experiment: Inhibitory activity against Bezold-jarisch functional assay, inducing a transient bradycardia upon intravenous administration of 5-hydroxytryptamine-(10 ug/kg) in anesthetized rats.; details: read-out: ID50 (the source's name)
[1] = Compound was evaluated for protection against cisplatin-induced emesis by measuring number of emetic episodes in ferrets when administered intravenously at 0.03 mg/kg.; format: functional, Mustela putorius furo; details: route intravenous
[2] = Compound was evaluated for protection against cisplatin-induced emesis by measuring number of retches in ferrets when administered intravenously at 0.1 mg/kg.; format: functional, Mustela putorius furo; details: route intravenous
[3] = Compound was evaluated for protection against cisplatin-induced emesis by measuring number of emetic episodes in ferrets when administered intravenously at 0.1 mg/kg.; format: functional, Mustela putorius furo; details: route intravenous
[4] = Compound was evaluated for protection against cisplatin-induced emesis by measuring number of retches in ferrets when administered intravenously at 0.03 mg/kg.; format: functional, Mustela putorius furo; details: route intravenous
[5] = Compound was evaluated for protection against cisplatin-induced emesis by measuring number of emetic episodes in ferrets when administered perorally at 0.1 mg/kg; format: functional, Mustela putorius furo; details: route oral
[6] = Compound was evaluated for protection against cisplatin-induced emesis by measuring number of emetic episodes in ferrets when administered intravenously at 0.3 mg/kg; format: functional, Mustela putorius furo; details: route intravenous
[7] = Compound was evaluated for protection against cisplatin-induced emesis by measuring number of emetic episodes in ferrets when administered intravenously at 0.01 mg/kg; format: functional, Mustela putorius furo; details: route intravenous
[8] = Compound was evaluated for protection against cisplatin-induced emesis by measuring number of emetic episodes in ferrets when administered perorally at 0.3 mg/kg; format: functional, Mustela putorius furo; details: route oral
[9] = Compound was evaluated for protection against cisplatin-induced emesis by measuring number of retches in ferrets when administered intravenously at 0.1 mg/kg; format: functional, Mustela putorius furo; details: route intravenous
[10] = Compound was evaluated for protection against cisplatin-induced emesis by measuring number of retches in ferrets when administered perorally at 0.1 mg/kg; format: functional, Mustela putorius furo; details: route oral
[11] = Compound was evaluated for protection against cisplatin-induced emesis by measuring number of retches in ferrets when administered intravenously at 0.3 mg/kg.; format: functional, Mustela putorius furo; details: route intravenous
[12] = Compound was evaluated for protection against cisplatin-induced emesis by measuring number of retches in ferrets when administered perorally at 0.3 mg/kg.; format: functional, Mustela putorius furo; details: route oral
[13] = Compound was evaluated for protection against cisplatin-induced emesis by measuring number of retches in ferrets when administered intravenously at 0.01 mg/kg; format: functional, Mustela putorius furo; details: route intravenous
[14] = Compound was evaluated for protection against cisplatin-induced emesis by measuring number of retches in ferrets when administered perorally at 0.03 mg/kg; format: functional, Mustela putorius furo; details: route oral
[15] = Compound was evaluated for protection against cisplatin-induced emesis by measuring number of emetic episodes in ferrets when administered perorally at 0.03 mg/kg; format: functional, Mustela putorius furo; details: route oral

## Cc1[nH]cnc1Cn1ccc2cnc3ccccc3c2c1=O
Rattus norvegicus
  ED50: 0.28 µg/kg

## Cc1[nH]cnc1Cn1cccc(-c2ccoc2)c1=O
Rattus norvegicus
  ED50: 8.65 µg/kg

## Cc1nc[nH]c1Cn1ccc2c(C(=O)N(C)C)cc3ccccc3c2c1=O
Rattus norvegicus
  ED50: 7.46 µg/kg

## Cc1[nH]cnc1Cn1ccc2ccc3ncccc3c2c1=O
Rattus norvegicus
  ED50: 2.86 µg/kg

## CCn1c2ccccc2c2c3c(=O)n(Cc4[nH]cnc4C)ccc3ccc21
Rattus norvegicus
  ED50: 43.9 µg/kg

## Cc1[nH]cnc1Cn1cnc2ccccc2c1=O
Rattus norvegicus
  ED50: > 100 µg/kg

## Cc1[nH]cnc1Cn1ccc2ccc3c(ccn3C)c2c1=O
Rattus norvegicus
  ED50: 1.64 µg/kg

## Cc1[nH]cnc1Cn1cccc(-c2cccc(Cl)c2)c1=O
Rattus norvegicus
  ED50: 10 µg/kg

## Cc1[nH]cnc1Cn1ccc2c(O)nc3ccccc3c2c1=O
Rattus norvegicus
  ED50: 0.05 µg/kg

## Cc1[nH]cnc1Cn1cccc(-c2cccc(F)c2)c1=O
Rattus norvegicus
  ED50: 29.9 µg/kg

## Cc1[nH]cnc1Cn1cccc(-c2cc3ccccc3s2)c1=O
Rattus norvegicus
  ED50: > 100 µg/kg

## Cc1[nH]cnc1Cn1cccc(-c2cccs2)c1=O
[1]
  No. of emetic episodes: 6
[2]
  No. of retches: 22
Rattus norvegicus
  ED50: 0.27 µg/kg
[3]
  No. of emetic episodes: 1.3
[4]
  No. of retches: 90.8

## Cc1[nH]cnc1Cn1cccc(-c2ccco2)c1=O
Rattus norvegicus
  ED50: 0.9 µg/kg

## Cc1[nH]cnc1Cn1cccc(-c2ccsc2)c1=O
Rattus norvegicus
  ED50: 3.1 µg/kg

## COc1ccc(-c2cccn(Cc3[nH]cnc3C)c2=O)cc1
Rattus norvegicus
  ED50: > 100 µg/kg

## Cc1[nH]cnc1Cn1ccc2ncc3ccccc3c2c1=O
Rattus norvegicus
  ED50: 0.16 µg/kg

## COc1ccccc1-c1cccn(Cc2[nH]cnc2C)c1=O
Rattus norvegicus
  ED50: 18.2 µg/kg

## Cc1[nH]cnc1Cn1ccc2cc(N)c(Cl)cc2c1=O
[5]
  No. of emetic episodes: 1.2
[6]
  No. of emetic episodes: 0.8
[7]
  No. of emetic episodes: 10
[1]
  No. of emetic episodes: 4.8
[8]
  No. of emetic episodes: 0.2
[9]
  No. of retches: 26.5
Rattus norvegicus
  ED50: 0.36 µg/kg
[10]
  No. of retches: 18.6
[11]
  No. of retches: 18.8
[12]
  No. of retches: 3.5
[13]
  No. of retches: 116.8
[14]
  No. of retches: 142.2
[3]
  No. of emetic episodes: 1.3
[15]
  No. of emetic episodes: 8.8
[4]
  No. of retches: 71

## Cc1[nH]cnc1Cn1ccc2c(O)cc3ccccc3c2c1=O
Rattus norvegicus
  ED50: 0.62 µg/kg

## Cc1[nH]cnc1Cn1ccc2ccc3cccnc3c2c1=O
Rattus norvegicus
  ED50: 24.3 µg/kg

## Cc1[nH]cnc1Cn1ccc2c(c1=O)-c1ccccc1CC2
Rattus norvegicus
  ED50: 0.46 µg/kg

## Cc1cccc(-c2cccn(Cc3[nH]cnc3C)c2=O)c1
Rattus norvegicus
  ED50: 9.03 µg/kg

## Cc1[nH]cnc1Cn1cccc(-c2cccn2C)c1=O
Rattus norvegicus
  ED50: 43.3 µg/kg

## Cc1ccsc1-c1cccn(Cc2[nH]cnc2C)c1=O
Rattus norvegicus
  ED50: 0.44 µg/kg

## Cc1[nH]cnc1Cn1ccc2c(N)cccc2c1=O
Rattus norvegicus
  ED50: > 100 µg/kg

## Cc1[nH]cnc1Cn1ccc2cc(Br)c3ccccc3c2c1=O
Rattus norvegicus
  ED50: 6.21 µg/kg
